Test results taken from patent US11752157B2, “Oxytocin receptor antagonist therapy in the luteal phase for implantation and pregnancy in women undergoing assisted reproductive technologies” (Ferring B.V., priority 2014, dated 2023).
Where a SMILES comes first, the peptide text is derived from it. Bridges are numbered along the chain shown (N, C = ends). [ ]: non-standard residue; d: D form. Orn = NCCC[C@H](N)C(=O)O; Mpa = O=C(O)CCS

Legend:
[1] = tested on: IVF/ICSI patients; conditions: cited from earlier work
[2] = tested on: IVF/ICSI patients; experiment: BASIC randomized, placebo-controlled, double-blind clinical trial: barusiban subcutaneously on the day of transfer, implantation in IVF/ICSI patients; format: in vivo, human
Source text: Example 1: A randomized, placebo-controlled, double-blind, parallel groups, multinational, multicenter trial assessing the effect of barusiban administered subcutaneously on the day of transfer on implantation and pregnancy rates in IVF/ICSI patients
BASIC was a randomized, double-blind, placebo-controlled, parallel groups, multinational, multicenter trial. It was designed to evaluate the effects of barusiban, administered either on the day of cleavage-stage embryo transfer or on the day of blastocyst transfer, on ongoing implantation rate in IVF/ICSI patients. The patients underwent controlled ovarian stimulation in the long GnRH agonist or GnRH antagonist protocol, received hCG for triggering of final follicular maturation, had undergone oocyte retrieval, and had daily luteal phase support by supplementation with vaginal progesterone starting on day 1 post-retrieval, and transfer on day 3 or 5 post-retrieval. Patients were randomized in a 1:1 ratio to either the barusiban group or the placebo group, with stratification according to the day of transfer (day 3 post-retrieval or day 5 post-retrieval) and the number of embryos/blastocysts to be transferred (1 or 2). In total, 255 IVF/ICSI patients were randomized in the trial and contributing with 440 embryos/blastocysts.
Investigational medicinal product, i.e., barusiban or placebo according to randomization, was administered as subcutaneous injections at two time points: 1st administration of 40 mg barusiban or placebo was […] prior to transfer and the 2nd administration of 10 mg barusiban or placebo was […] after the 1st administration.
Transfer was performed on day 3 (cleavage-stage embryos) or day 5 (blastocysts) after oocyte retrieval. On day 3, only embryos of good quality defined as ≥6 blastomeres and ≤20% fragmentation were transferred. On day 5, blastocysts with expansion and hatching status 3, 4, 5 or 6 were transferred. The actual number of transferred embryos/blastocysts for each individual patient depended on the availability of embryos; blastocysts of the required morphological quality, local regulations and clinical practice for the patient's age, but the maximum number was 2.
Key aspects related to the transfer procedure had been standardized. A speculum was inserted into the vagina and cleaning of the vagina and cervix was done according to local practices but with minimal manipulation and disturbance. Soft or ultrasoft catheters were used. The outer sheath of the catheter was inserted just protruding to the internal os (i.e. keeping the outer sheath in the cervical canal). The embryo(s)/blastocyst(s) were loaded into the inner sheath which was then inserted through the outer sheath. Using abdominal ultrasound guidance, the embryo(s)/blastocyst(s) were placed 1.5-2.0 cm from the fundus. The time from loading the inner catheter to placing the embryo(s)/blastocyst(s) should not have exceeded 1 min. After placement, the inner and outer catheters were withdrawn and checked for retained embryo(s)/blastocyst(s), mucus and blood. After confirmation that there were no embryo(s)/blastocyst(s) left in the catheters, the speculum was subsequently removed; this occurred approximately within 2 min after placement of the embryo(s)/blastocyst(s). Any difficulties/eventualities occurring during the transfer procedure were recorded.
Patients received vaginal progesterone tablets 100 mg twice daily from the day after oocyte retrieval and until the day of the clinical pregnancy visit. On the day of transfer, patients should insert the progesterone tablets at least 3 hours before transfer and at least 3 hours after transfer. Ongoing implantation rate (primary endpoint) was defined as the number of intrauterine viable fetuses 10-11 weeks after transfer divided by number of embryos/blastocysts transferred. […]

Molecule	increase in implantation or live birth rates compared to placebo ([1]; administration on day 2 or day 3 post-retrieval (early luteal phase))	live birth rate ([1]; cleavage-stage embryo transfer on day 2 or day 3 post-retrieval, N=800, placebo 38.0%) [%]	effect on improving ongoing implantation rate ([2]; blastocyst transfer on day 5 (receptive stage), p=0.0270)	odds ratio for ongoing implantation rate ([2]; blastocyst transfer on day 5 post-retrieval, vs placebo, CI 1.1-4.7, p=0.0270)	relative Δ of ongoing implantation rate vs placebo ([2]; blastocyst transfers (day 5), adjusted means 45% vs 27%) [%]	adjusted mean of ongoing implantation rate ([2]; blastocyst transfers (day 5 post-retrieval), placebo 27%) [%]	effect on ongoing implantation rate ([2]; cleavage-stage embryo transfer on day 3 (pre-receptive stage))	odds ratio for ongoing implantation rate ([2]; cleavage-stage embryo transfer on day 3 post-retrieval, vs placebo, CI 0.3-1.2, p=0.1509)	odds ratio for ongoing implantation rate ([2]; overall (day 3+day 5), barusiban vs placebo, logistic regression, PP, 95% CI 0.7-1.8, p=0.6960)	observed overall ongoing implantation rate ([2]; overall (day 3+day 5 transfers), per-protocol population, 40 mg + 10 mg s.c. on day of transfer) [%]	ongoing implantation rate ([2]; overall, intention-to-treat (ITT) population) [%]
CCOc1ccc(C[C@H]2NC(=O)CCSSC[C@@H](C(=O)N3CCC[C@H]3C(=O)N[C@@H](CCCN)C(=O)NCC(N)=O)NC(=O)[C@H](CC(N)=O)NC(=O)[C@H]([C@@H](C)O)NC(=O)[C@H]([C@@H](C)CC)NC2=O)cc1 [atosiban, 1-(3-mercaptopropanoic acid)-2-(O-ethyl-D-tyrosine)-4-L-threonine-8-L-ornithine-oxytocin] ([Mpa][dY](Et)ITNCP[Orn]G-NH2; disulfide 1-6)	no significant increase	39.8	–	–	–	–	–	–	–	–	–
barusiban	–	–	significant	2.3	67	45	No effect	0.3	1.1	27.1	26.2
